Laboratory results from patent publication US20110229415A1, “SEMI-SYNTHETIC ANTIBODIES AS RECOGNITION ELEMENTS” (priority 2007, published 2011).

Experiments:
Type in all cases: binding
[1] = molecular target: mouse anti-human IL-6 antibody; assay: Determination of KD by competitive labeling with 2-N3ATP [γ 32P] and 2-N3ATP-fluorophore; conditions: competition with 30 μM 2-N3ATP [γ 32P], 2 μg antibody, photolysis; read-out: apparent KD
Protocol: Determination of KD of the monoclonal antibody for 2-N3ATP-fluorophore. Competitive labeling of the mouse anti-human IL-6 antibody with 2-N3ATP [γ ^32P] and 2-N3ATP-fluorophore was done. 30 μM 2-N3ATP [γ ^32P] and 2 μg of the antibody was added to each 10 μM, 20 μM, 40 μM, 60 μM, 80 μM, 100 μM and 120 μM of 2-N3ATP-fluorophore tube and incubated for 20 min on ice. The tubes were then photolyzed for 1 min 15 s. The reaction was quenched by adding 5 μl of 0.25 mg/ml cysteine and analyzed by SDS/PAGE and autoradiography.

mAb against Osteonectin = assay: Labeling of mAb against Osteonectin with radioactive probes
Protocol: 2N3ATP versus [γ^32P] 8N3ATP. Lanes A and D have […] have 10 μL, and C and F have 15 μL of the labeled antibody. [γ^32P] 2N3ATP labels the antibody better than [γ^32P] 8N3ATP.

[2] = test system: Mouse anti-Human IL-6 monoclonal antibody; assay: Selecting the photoaffinity probe: photolabeling of antibody with radioactive nucleotide probes, SDS PAGE/autoradiography; conditions: IL-6 antibody, 300 μM of each probe, pH 4.0
Protocol: Selecting the photoaffinity probe. Two radioactive nucleotide probes, [γ-^32P]8-N3ATP and [γ-^32P]2-N3ATP were tested towards their reactivity with Mouse anti-Human IL-6 monoclonal antibody. For the labeling procedure 8 μg antibody was incubated with 300 μM of each probe in two different tubes in a final volume of 62 μl for 10 min on ice. The buffer used was 100 mM BTP at pH 4.0. After 10 min incubation the two tubes were photolyzed with a hand held UV lamp at 254 nm for 2 min and the reaction mixture was agitated in between to prevent local heating. The reaction was quenched by adding 12 μl of loading dye, PSM (5×) and heating it in a water bath for 5 min. The reaction products were then analyzed by SDS PAGE. ^32P incorporation was detected by autoradiography.

[3] = test system: Mouse anti-Human IL-6 monoclonal antibody; assay: Saturation of labeling of antibody with photoreactive probe; conditions: 2 μg antibody, increasing probe concentrations, photolysis at 254 nm
Protocol: Saturation of labeling. 2 μg of Mouse anti-Human IL-6 monoclonal antibody was incubated with increasing concentrations of [γ-^32P]2-N3ATP for 20 min on ice and photolyzed with a hand held lamp at 254 nm for 1 min 15 sec. The reaction was quenched by adding 5 μl of 0.25 mg/ml cysteine and analyzed by SDS/PAGE and autoradiography.

Row | Molecule | Kd [1] [µM] | labeling of the antibody, compared with the 8-azido probe (mAb against Osteonectin) | labeling of the antibody, compared with the 8-azido probe [2] | saturation of photolabeling (probe concentration) [3]
1 | 2-N3ATP-Alexa Fluor 594 cadaverine | ~17 | – | – | –
2 | [N-]=[N+]=Nc1nc(N)c2ncn([C@@H]3O[C@H](COP(=O)(O)OP(=O)(O)O[32P](=O)(O)O)[C@@H](O)[C@H]3O)c2n1 [[γ-^32P]-2-N3ATP] | – | better than [γ^32P] 8N3ATP | better than [γ-^32P]-8-N3ATP | ~25 ΞM
3 | [N-]=[N+]=Nc1nc(N)c2ncn([C@@H]3O[C@H](COP(=O)(O)OP(=O)(O)OP(=O)(O)O)[C@@H](O)[C@H]3O)c2n1 [2-N3ATP, 2-azido ATP] | – | greater efficiency as compared to 8-azido ATP | greater efficiency as compared to 8-N3ATP | –
